Assay results as given in patent US12653191B2, “Active compound combinations” (Bayer Aktiengesellschaft, priority 2020, dated 2026).
Values joined by “and” are separate entries in the source; they are usually repeats but may differ in a detail not shown here. Equal values may be shown once.

Legend:
[1] = system: Cercospora beticola; experiment: in vitro-Test with fungal microorganisms, Method A (tables C1-C10); format: cell-based
Outline: (§1)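 First, compound in methanol with alkylaryl-polyglycol-ether was dried down in the plate. Next, spore or mycelium suspension in potato dextrose broth was added and extinction read at 620 nm. After 3-5 days at 20° C, 85% RH, reading was repeated and efficacy scored against untreated wells.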

[2] = system: Parastagonospora nodorum; experiment: in vitro-Test with fungal microorganisms, Method A (tables H1-H4); format: cell-based
Experimental: Example: In Vitro-Test with Fungal Microorganisms
Wells of 96-well microtiter plates are filled with 10 μl of a preparation of test compound or compound combination in methanol+emulsifier alkylaryl-polyglycol-ether. Thereafter, the solvent is evaporated in a hood. At the next step, 100 μl of liquid potato dextrose medium is given into each well, that has been amended with an appropriate concentration of spores or mycelium suspension of the test fungus.
With the aid of a photometer, the extinction in all wells is measured at the wavelength of 620 nm.
The microtiter plates are incubated at 20° C. and 85% relative humidity. The inhibition of growth is determined again photometrically 3-5 days after the application. Efficacy is calculated in relation to the untreated control, 0% efficacy means fungal growth as high as in untreated control while 100% efficacy means no fungal growth is measured.
The data in tables A1 to A12, B1 to B14, C1 to C10, D1 to D8, E1 to E8, F1 to F11, G1 to G4, H1 to H4 and I1 to I5 were collected according to Method A. The data in tables A13 to A22, B15 to B18, C11 to C20, E9 to E16, F12 to F15, G5 to G15, H5 to H8, I6 to I11 and J1 to J11 were collected according to Method B.

[3] = system: Ustilago segetum var. avenae; experiment: in vitro-Test with fungal microorganisms, Method A (tables I1-I5); format: cell-based; settings: alone
Outline: as §1

[4] = system: Colletotrichum lindemuthianum; experiment: in vitro-Test with fungal microorganisms, Method A (tables D1-D8); format: cell-based
Outline: as §1

[5] = system: Colletotrichum coccodes; experiment: in vitro-Test with fungal microorganisms, Method B (tables J1-J11); format: cell-based
Outline: (§2)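 Cpd in MeOH + alkylaryl-polyglycol-ether, solvent evaporated; liquid medium + fungal spores/mycelium added; OD600 read; 3–7 d, 20° C., 85% RH; growth inhibition by photometry, % efficacy vs untreated ctrl.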

[6] = system: Botrytis cinerea; experiment: in vitro-Test with fungal microorganisms, Method B (tables B15-B18); format: cell-based; settings: alone
Outline: as §2

[7] = system: Botrytis cinerea; experiment: in vitro-Test with fungal microorganisms, Method A (tables B1-B14); format: cell-based; settings: for Efficacy %: alone
Outline: as §1

[8] = system: Cordana musae; experiment: in vitro-Test with fungal microorganisms, Method B (tables E9-E16); format: cell-based; settings: for Efficacy: single active; for Efficacy %: single substance
Outline: as §2

[9] = system: Ustilago segetum var. avenae; experiment: in vitro-Test with fungal microorganisms, Method B (tables I6-I11); format: cell-based
Outline: as §2

[10] = system: Alternaria alternate; experiment: in vitro-Test with fungal microorganisms, Method A (tables A1-A12); format: cell-based, Alternaria alternata; settings: applied alone
Outline: as §1

[11] = system: Cercospora beticola; experiment: in vitro-Test with fungal microorganisms, Method B (tables C11-C20); format: cell-based; settings: single compound
Outline: as §2

[12] = system: Diaporthe citri; experiment: in vitro-Test with fungal microorganisms, Method A (tables F1-F11); format: cell-based
Outline: as §1

[13] = system: Alternaria alternata; experiment: in vitro-Test with fungal microorganisms, Method B (tables A13-A22); format: cell-based
Outline: as §2

[14] = system: Diaporthe citri; experiment: in vitro-Test with fungal microorganisms, Method B (tables F12-F15); format: cell-based
Outline: as §2

[15] = system: Fusarium culmorum; experiment: in vitro-Test with fungal microorganisms, Method B (tables G5-G15); format: cell-based
Outline: as §2

[16] = system: Cordana musae; experiment: in vitro-Test with fungal microorganisms, Method A (tables E1-E8); format: cell-based; settings: single substance
Outline: as §1

Compound: COc1ccnc(C(=O)N[C@H]2COC(=O)[C@H](Cc3ccccc3)[C@@H](OC(=O)C(C)C)[C@H](C)OC2=O)c1OCOC(=O)C(C)C [(3.025) fenpicoxamid, fenpicoxamid]
- Efficacy % ([1]; 0.04 ppm): 0%
- Efficacy % ([1]; 0.2 ppm): 2%
- Efficacy % ([1]; 0.2 ppm alone): 41% and 35%
- Efficacy % ([1]; 1.0 ppm): 20%
- Efficacy % ([1]; 1.0 ppm alone): 62% and 53%
- Efficacy % ([1]; 5.0 ppm): 98%
- Efficacy % ([1]; 5.0 ppm alone): 92% and 88%
- Efficacy ([2]; 0.04 ppm): 19%
- Efficacy ([2]; 0.2 ppm): 61%
- Efficacy ([2]; 1.0 ppm): 64%
- Efficacy ([2]; 5.0 ppm): 72%
- Efficacy % ([3]; 0.04 ppm): 0%
- Efficacy % ([3]; 0.2 ppm): 0%
- Efficacy % ([3]; 1.0 ppm): 0%
- Efficacy % ([3]; 5.0 ppm): 0%
- Efficacy % ([4]; single active at 0.04 ppm): 0%
- Efficacy % ([4]; single active at 0.2 ppm): 5%
- Efficacy % ([4]; single active at 1.0 ppm): 69% and 66%
- Efficacy % ([4]; single active at 5.0 ppm): 79% and 86%
- Efficacy % ([5]; single active compound at 0.2 ppm): 23% and 33%
- Efficacy % ([5]; single active compound at 1 ppm): 16%
- Efficacy % ([6]; 0.008 ppm): 0%
- Efficacy % ([6]; 0.2 ppm): 14%
- Efficacy % ([6]; 1 ppm): 52%
- Efficacy ([7]; 0.04 ppm): 6%
- Efficacy ([7]; 0.2 ppm): 6%
- Efficacy ([7]; 1.0 ppm): 21%
- Efficacy % ([7]; 0.04 ppm): 15%
- Efficacy % ([7]; 0.2 ppm): 9%
- Efficacy % ([7]; 1.0 ppm): 15%
- Efficacy % ([7]; 5.0 ppm): 45%
- Efficacy ([8]; 0.2 ppm): 44%
- Efficacy % ([8]; 0.008 ppm): 0%
- Efficacy % ([8]; 0.2 ppm): 52%
- Efficacy % ([9]; 0.008 ppm): 14%
- Efficacy % ([9]; 0.04 ppm): 6%
- Efficacy % ([9]; 0.2 ppm): 1%
- Efficacy % ([10]; 0.04 ppm): 5% and 9%
- Efficacy % ([10]; 0.2 ppm): 2% and 7%
- Efficacy % ([10]; 1.0 ppm): 41% and 30%
- Efficacy % ([10]; 5.0 ppm): 76% and 59%
- Efficacy % ([11]; 0.008 ppm): 0%
- Efficacy % ([11]; 0.2 ppm): 17% and 31%
- Efficacy % ([11]; 1 ppm): 97% and 100%
- Efficacy ([12]; applied alone, 0.04 ppm): 3%
- Efficacy ([12]; applied alone, 1.0 ppm): 79% and 66%
- Efficacy ([12]; applied alone, 5.0 ppm): 92%
- Efficacy ([13]; single compound, 0.008 ppm): 6%
- Efficacy ([13]; single compound, 0.04 ppm): 14%
- Efficacy ([13]; single compound, 1 ppm): 61%
- Efficacy ([14]; Table F12, 0.008 ppm alone): 0%
- Efficacy ([14]; Table F12, 0.2 ppm alone): 83%
- Efficacy ([14]; Table F12, 1 ppm alone): 94%
- Efficacy ([14]; Table F13, 0.2 ppm alone): 79%
- Efficacy ([15]; 0.008 ppm alone): 10%
- Efficacy ([15]; single active compound, 0.008 ppm): 7% and 5%
- Efficacy ([15]; single active compound, 0.04 ppm): 1% and 9%
- Efficacy ([15]; single active compound, 0.2 ppm): 18% and 25%
- Efficacy ([15]; single active compound, 1 ppm): 17%
- Efficacy % ([16]; 1.0 ppm): 40%
- Efficacy % ([16]; 5.0 ppm): 80%

Compound: mancozeb [(5.013) mancozeb]
- Efficacy % ([1]; 0.08 ppm): 4% and 0%
- Efficacy % ([1]; 0.08 ppm alone): 0%
- Efficacy % ([1]; 0.4 ppm alone): 0%
- Efficacy % ([1]; 2.0 ppm): 100%
- Efficacy % ([1]; 2.0 ppm alone): 100%
- Efficacy % ([1]; 10.0 ppm): 100%
- Efficacy % ([1]; 10.0 ppm, alone): 100%
- Efficacy ([2]; 0.08 ppm): 0%
- Efficacy ([2]; 0.4 ppm): 5%
- Efficacy ([2]; 2.0 ppm): 37%
- Efficacy ([2]; 10.0 ppm): 100%
- Efficacy % ([3]; 0.08 ppm): 3%
- Efficacy % ([3]; 0.4 ppm): 0%
- Efficacy % ([3]; 2.0 ppm): 10%
- Efficacy % ([3]; 10.0 ppm): 98%
- Efficacy % ([4]; single active at 0.08 ppm): 4%
- Efficacy % ([4]; single active at 0.4 ppm): 0%
- Efficacy % ([4]; single active at 10.0 ppm): 100%
- Efficacy % ([5]; single active compound at 0.8 ppm): 0%
- Efficacy % ([5]; single active compound at 4 ppm): 0%
- Efficacy % ([5]; single active compound at 20 ppm): 100%
- Efficacy % ([6]; 0.8 ppm): 0% and 4%
- Efficacy ([7]; 0.4 ppm): 0%
- Efficacy ([7]; 2.0 ppm): 0%
- Efficacy ([7]; 10.0 ppm): 33%
- Efficacy % ([7]; 0.8 ppm): 15%
- Efficacy % ([7]; 4.0 ppm): 0%
- Efficacy % ([7]; 20.0 ppm): 15%
- Efficacy % ([7]; 100.0 ppm): 83%
- Efficacy ([8]; 0.8 ppm): 0%
- Efficacy ([8]; 4 ppm): 14% and 19%
- Efficacy ([8]; 20 ppm): 100%
- Efficacy % ([11]; 0.8 ppm): 0%
- Efficacy ([12]; Table F10, 0.08 ppm alone): 0%
- Efficacy ([12]; Table F10, 0.4 ppm alone): 46%
- Efficacy ([12]; Table F10, 2.0 ppm alone): 100%
- Efficacy ([12]; Table F10, 10.0 ppm alone): 100%
- Efficacy ([12]; applied alone, 0.08 ppm): 6%
- Efficacy ([12]; applied alone, 0.4 ppm): 21%
- Efficacy ([12]; applied alone, 2.0 ppm): 100%
- Efficacy ([12]; applied alone, 10.0 ppm): 100%
- Efficacy ([12]; single active, 0.08 ppm): 2%
- Efficacy ([12]; single active, 0.4 ppm): 0%
- Efficacy ([12]; single active, 2.0 ppm): 46%
- Efficacy ([12]; single active, 10.0 ppm): 100%
- Efficacy ([13]; 0.8 ppm): 4%
- Efficacy ([13]; 4 ppm): 36%
- Efficacy ([13]; 20 ppm): 63%
- Efficacy ([14]; Table F14, 0.8 ppm alone): 0%
- Efficacy ([14]; Table F14, 4 ppm alone): 78%
- Efficacy ([14]; Table F14, 20 ppm alone): 99%
- Efficacy ([15]; single active compound, 0.8 ppm): 0%
- Efficacy ([15]; single active compound, 4 ppm): 16%
- Efficacy ([15]; single active compound, 20 ppm): 50% and 31%
- Efficacy % ([16]; 0.08 ppm): 0%
- Efficacy % ([16]; 0.4 ppm): 0% and 3%
- Efficacy % ([16]; 2.0 ppm): 31% and 32%
- Efficacy % ([16]; 10.0 ppm): 100%
